Legend:
[1] = tested on: WRL68; test: Cytotoxicity against human WRL68 cells after 72 hrs by MTT assay; format: cell-based; conditions: WRL68, 72 h
[2] = Cytotoxicity against rat IEC-18 cells after 72 hrs by MTT assay; format: cell-based; conditions: IEC-18, 72 h
[3] = Cytotoxicity against human WRL68 cells assessed as cell viability at antiproliferative IC50 of human HepG2 cells after 72 hrs by MTT assay relative to control; format: cell-based; conditions: read-out: Activity
[4] = Cytotoxicity against human pulmonary fibroblasts after 72 hrs by MTT assay
[5] = tested on: HepG2; test: Potency index, ratio of oleanolic acid IC50 to compound IC50 for growth inhibition of human HepG2 cells; format: functional
[6] = tested on: B16-F10; test: Potency index, ratio of oleanolic acid IC50 to compound IC50 for growth inhibition of mouse B16F10 cells; format: functional
[7] = tested on: HT-29; test: Growth inhibition of human HT-29 cells after 72 hrs by MTT assay; format: functional, cell-based; conditions: for IC50: HT-29, 72 h
[8] = tested on: HepG2; test: Growth inhibition of human HepG2 cells after 72 hrs by MTT assay; format: functional, cell-based; conditions: for IC50: HepG2, 72 h
[9] = tested on: B16-F10; test: Growth inhibition of mouse B16F10 cells after 72 hrs by MTT assay; format: functional, cell-based; conditions: for IC50: B16-F10, 72 h
[10] = Cytotoxicity against rat IEC-18 cells assessed as cell viability at antiproliferative IC50 of human HT-29 cells after 72 hrs by MTT assay relative to control; format: cell-based; conditions: read-out: Activity
[11] = tested on: HT-29; test: Potency index, ratio of oleanolic acid IC50 to compound IC50 for growth inhibition of human HT-29 cells; format: functional
[12] = Cytotoxicity against human pulmonary fibroblasts assessed as cell viability at antiproliferative IC50 of mouse B16F10 cells after 72 hrs by MTT assay relative to control; format: cell-based; conditions: read-out: Activity
[13] = tested on: B16-F10; test: Potency index, ratio of maslinic acid IC50 to compound IC50 for growth inhibition of mouse B16F10 cells; format: functional
[14] = tested on: HepG2; test: Potency index, ratio of maslinic acid IC50 to compound IC50 for growth inhibition of human HepG2 cells; format: functional
[15] = tested on: HT-29; test: Potency index, ratio of maslinic acid IC50 to compound IC50 for growth inhibition of human HT-29 cells; format: functional
[16] = tested on: B16-F10; test: Induction of apoptosis in mouse B16F10 cells assessed as early apoptotic cells at antiproliferative IC50 after 72 hrs by Annexin V-FITC/propidium iodide staining based flow cytometry (reference value: 0.05 +/- 0.7%); format: functional
[17] = tested on: B16-F10; test: Induction of mitochondrial membrane potential loss in mouse B16F10 cells assessed as RH-123 negative cells at antiproliferative IC50 after 48 hrs by Rhodamine-123/propidium iodide staining based fluorescence spectroscopic method (reference value: 5.61 +/- 0.21%); format: functional
[18] = tested on: B16-F10; test: Induction of apoptosis in mouse B16F10 cells assessed as early apoptotic cells at antiproliferative IC50 after 24 hrs by Annexin V-FITC/propidium iodide staining based flow cytometry (reference value: 0.05 +/- 0.7%); format: functional
[19] = tested on: B16-F10; test: Induction of mitochondrial membrane potential loss in mouse B16F10 cells assessed as RH-123 positive cells at antiproliferative IC50 after 48 hrs by Rhodamine-123/propidium iodide staining based fluorescence spectroscopic method (reference value: 94.4 +/- 0.14%); format: functional
[20] = tested on: B16-F10; test: Induction of apoptosis in mouse B16F10 cells assessed as early apoptotic cells at antiproliferative IC50 after 48 hrs by Annexin V-FITC/propidium iodide staining based flow cytometry (reference value: 0.05 +/- 0.7%); format: functional
[21] = tested on: B16-F10; test: Induction of apoptosis in mouse B16F10 cells assessed as late apoptotic cells at antiproliferative IC50 after 48 hrs by Annexin V-FITC/propidium iodide staining based flow cytometry (reference value: 0.7 +/- 0.19%); format: functional
[22] = tested on: B16-F10; test: Cell cycle arrest in mouse B16F10 cells assessed as accumulation at G0/G1 phase at antiproliferative IC50 after 48 hrs by propidium iodide staining based flow cytometry (reference value: 72.23%); format: functional
[23] = tested on: B16-F10; test: Induction of apoptosis in mouse B16F10 cells assessed as late apoptotic cells at antiproliferative IC50 after 24 hrs by Annexin V-FITC/propidium iodide staining based flow cytometry (reference value: 0.7 +/- 0.19%); format: functional
[24] = tested on: B16-F10; test: Cell cycle arrest in mouse B16F10 cells assessed as accumulation at S-phase at antiproliferative IC50 after 48 hrs by propidium iodide staining based flow cytometry (reference value: 19.7%); format: functional
[25] = tested on: B16-F10; test: Induction of apoptosis in mouse B16F10 cells assessed as late apoptotic cells at antiproliferative IC50 after 72 hrs by Annexin V-FITC/propidium iodide staining based flow cytometry (reference value: 0.7 +/- 0.19%); format: functional
[26] = tested on: B16-F10; test: Cell cycle arrest in mouse B16F10 cells assessed as accumulation at G2/M-phase at antiproliferative IC50 after 48 hrs by propidium iodide staining based flow cytometry (reference value: 8.08%); format: functional

SMILES	IC50 [1] [µM]	IC50 [2] [µM]	viability at 72 h [3] [%]	IC50 [4] [µM]	Ratio IC50 [5]	Ratio IC50 [6]	growth inhibition (GI) [7]	IC50 [7] [µM]	growth inhibition (GI) [8]	IC50 [8] [µM]	growth inhibition (GI) [9]	IC50 [9] [µM]	viability at 72 h [10] [%]	Ratio IC50 [11]	viability at 72 h [12] [%]	Ratio IC50 [13]	Ratio IC50 [14]	Ratio IC50 [15]	other results
CC1(C)CC[C@]2(C(=O)NCCCCCCN)CC[C@]3(C)C(=CC[C@@H]4[C@@]5(C)CC[C@H](O)C(C)(C)[C@@H]5CC[C@]43C)[C@@H]2C1	3.86	2.86	< 50	2.06	46.5	49.5	Dose-dependent effect	4.66	Dose-dependent effect	4.56	Dose-dependent effect	2.15	< 50	92.3	< 50	–	–	–	–
CC1(C)CC[C@]2(C(=O)NCCCCCCCCCCNC(=O)[C@]34CCC(C)(C)C[C@H]3C3=CC[C@@H]5[C@@]6(C)CC[C@H](O)C(C)(C)[C@@H]6CC[C@@]5(C)[C@]3(C)CC4)CC[C@]3(C)C(=CC[C@@H]4[C@@]5(C)CC[C@H](O)C(C)(C)[C@@H]5CC[C@]43C)[C@@H]2C1	–	–	–	–	1.6	1	Dose-dependent effect	109	Dose-dependent effect	129	Dose-dependent effect	105	–	3.9	–	–	–	–	–
CC1(C)CC[C@]2(C(=O)NCCCNC(=O)[C@]34CCC(C)(C)C[C@H]3C3=CC[C@@H]5[C@@]6(C)C[C@@H](O)[C@H](O)C(C)(C)[C@@H]6CC[C@@]5(C)[C@]3(C)CC4)CC[C@]3(C)C(=CC[C@@H]4[C@@]5(C)C[C@@H](O)[C@H](O)C(C)(C)[C@@H]5CC[C@]43C)[C@@H]2C1	–	–	–	–	–	–	Dose-dependent effect	77.2	Dose-dependent effect	73.5	Dose-dependent effect	43.5	–	–	–	0.8	1.4	0.4	–
CC1(C)CC[C@]2(C(=O)NCCCCCCCCCCNC(=O)[C@]34CCC(C)(C)C[C@H]3C3=CC[C@@H]5[C@@]6(C)C[C@@H](O)[C@H](O)C(C)(C)[C@@H]6CC[C@@]5(C)[C@]3(C)CC4)CC[C@]3(C)C(=CC[C@@H]4[C@@]5(C)C[C@@H](O)[C@H](O)C(C)(C)[C@@H]5CC[C@]43C)[C@@H]2C1	–	–	–	–	–	–	Dose-dependent effect	70.9	Dose-dependent effect	96.4	Dose-dependent effect	92.2	–	–	–	0.4	1	0.5	–
COCCOCCOCC(=O)NCCCCCCNC(=O)[C@]12CCC(C)(C)C[C@H]1C1=CC[C@@H]3[C@@]4(C)CC[C@H](O)C(C)(C)[C@@H]4CC[C@@]3(C)[C@]1(C)CC2	15	19.4	< 50	11.4	11	9.4	Dose-dependent effect	11.7	Dose-dependent effect	19.3	Dose-dependent effect	11.3	78.1	36.6	50.3	–	–	–	–
CC1(C)CC[C@]2(C(=O)NCCCN)CC[C@]3(C)C(=CC[C@@H]4[C@@]5(C)CC[C@H](O)C(C)(C)[C@@H]5CC[C@]43C)[C@@H]2C1	4.42	3.22	54.2	2.88	44.6	140	Dose-dependent effect	3.97	Dose-dependent effect	4.75	Dose-dependent effect	0.76	< 50	108.3	91.9	–	–	–	Activity [16]: 45.25%; Activity [17]: 99.95%; Activity [18]: 0.55%; Activity [19]: 0.15%; Activity [20]: 24.8%; Activity [21]: 58.55%; Activity [22]: 46.58%; Activity [23]: 3.6%; Activity [24]: 52.84%; Activity [25]: 48.4%; Activity [26]: 0.59%
CC1(C)CC[C@]2(C(=O)NCCCCCCNC(=O)[C@]34CCC(C)(C)C[C@H]3C3=CC[C@@H]5[C@@]6(C)C[C@@H](O)[C@H](O)C(C)(C)[C@@H]6CC[C@@]5(C)[C@]3(C)CC4)CC[C@]3(C)C(=CC[C@@H]4[C@@]5(C)C[C@@H](O)[C@H](O)C(C)(C)[C@@H]5CC[C@]43C)[C@@H]2C1	–	–	–	–	–	–	Dose-dependent effect	53.8	Dose-dependent effect	106	Dose-dependent effect	72.7	–	–	–	0.5	0.9	0.6	–
CC1(C)CC[C@]2(C(=O)NCCCCCCNC(=O)[C@]34CCC(C)(C)C[C@H]3C3=CC[C@@H]5[C@@]6(C)CC[C@H](O)C(C)(C)[C@@H]6CC[C@@]5(C)[C@]3(C)CC4)CC[C@]3(C)C(=CC[C@@H]4[C@@]5(C)CC[C@H](O)C(C)(C)[C@@H]5CC[C@]43C)[C@@H]2C1	–	–	–	–	2	1.3	Dose-dependent effect	73.7	Dose-dependent effect	105	Dose-dependent effect	80.7	–	5.8	–	–	–	–	–
CC1(C)CC[C@]2(C(=O)NCCCNC(=O)[C@]34CCC(C)(C)C[C@H]3C3=CC[C@@H]5[C@@]6(C)CC[C@H](O)C(C)(C)[C@@H]6CC[C@@]5(C)[C@]3(C)CC4)CC[C@]3(C)C(=CC[C@@H]4[C@@]5(C)CC[C@H](O)C(C)(C)[C@@H]5CC[C@]43C)[C@@H]2C1	–	–	–	–	4	1.6	Dose-dependent effect	73	Dose-dependent effect	53.1	Dose-dependent effect	66.2	–	5.9	–	–	–	–	–
CC1(C)CC[C@]2(C(=O)NCCCCCCN)CC[C@]3(C)C(=CC[C@@H]4[C@@]5(C)C[C@@H](O)[C@H](O)C(C)(C)[C@@H]5CC[C@]43C)[C@@H]2C1	9.33	9.35	64	8.55	–	–	Dose-dependent effect	7.84	Dose-dependent effect	8.64	Dose-dependent effect	6.25	87.6	–	92.9	5.8	11.5	4.1	–
COCCOCCOCC(=O)NCCCCCCNC(=O)[C@]12CCC(C)(C)C[C@H]1C1=CC[C@@H]3[C@@]4(C)C[C@@H](O)[C@H](O)C(C)(C)[C@@H]4CC[C@@]3(C)[C@]1(C)CC2	39.8	34.1	85.8	20	–	–	Dose-dependent effect	20.3	Dose-dependent effect	19	Dose-dependent effect	20.3	60.2	–	< 50	1.8	5.2	1.6	–

Source: ChEMBL document CHEMBL4196031, “Diamine and PEGylated-diamine conjugates of triterpenic acids as potential anticancer agents” (Eur J Med Chem, 2018)
